{"source": "patent EP1803441A1", "about": "(Teva Pharmaceutical Industries Ltd, priority 2005, dated 2007)", "origin": "cited, not measured here", "key": {"[1]": {"details": "oral administration"}, "[2]": {"details": "orally administered tablets"}}, "data": [{"smiles": "CC(C)OC(=O)C(C)(C)Oc1ccc(C(=O)c2ccc(Cl)cc2)cc1", "note": "[fenofibrate, 2-[4-(4-chlorobenzoyl)phenoxy]-2-methyl-propanoic acid, 1-methylethyl ester]", "values": [{"measurement": "part of a single dose excreted in the feces", "setting": "[1]", "result": 25, "unit": "%"}, {"measurement": "increase of the extent of absorption when tablets are taken with food", "setting": "[2]", "result": "approximately 35%"}]}]}
